Assay results reported in patent US7645785B2, “Benzimidazole derivatives” (Hoffmann-La Roche Inc., priority 2006, dated 2010).

Assays:
[1] = target: T1, FXR ligand binding domain (GST-FXR LBD fusion protein) (Homo sapiens, UniProt Q96RI1); experiment: Radioligand binding assay (scintillation proximity, radioligand displacement)
T1 construct: made in house; host or cells: E. coli BL21 (pLysS)
T1 sequence (Q96RI1 193-472 isoform Q96RI1-2 limits assumed): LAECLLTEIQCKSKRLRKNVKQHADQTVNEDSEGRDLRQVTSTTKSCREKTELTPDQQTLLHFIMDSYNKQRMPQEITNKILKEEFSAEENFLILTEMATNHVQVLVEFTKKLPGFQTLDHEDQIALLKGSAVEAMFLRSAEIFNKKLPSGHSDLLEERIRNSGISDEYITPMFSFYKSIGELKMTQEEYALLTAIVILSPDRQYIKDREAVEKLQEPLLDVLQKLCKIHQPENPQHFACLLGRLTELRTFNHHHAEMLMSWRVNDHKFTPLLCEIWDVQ
Experimental: The following tests were carried out in order to determine the activity of the compounds of formula (I). Background information on the binding assay can be found in: Nichols J S et al. “Development of a scintillation proximity assay for peroxisome proliferator-activated receptor gamma ligand binding domain”, (1998) Anal. Biochem. 257: 112-119.
(§1) Bacterial and mammalian expression vectors were constructed to produce glutathione-s-transferase (GST) and Gal4 DNA binding domain (GAL) proteins fused to the ligand binding domain (LBD) of human FXR (aa 193-473). To accomplish this, the portions of the sequences encoding the FXR LBD were amplified by polymerase chain reaction (PCR) from a full-length clone by PCR and then subcloned into the plasmid vectors. The final clone was verified by DNA sequence analysis.
The induction, expression, and subsequent purification of GST-LBD fusion protein was performed in E. coli strain BL21 (pLysS) cells by standard methods (Current Protocols in Molecular Biology, Wiley Press, ed. Ausubel et al).
Radioligand Binding Assay
Binding of test substances to the FXR ligand binding domain was assessed in a radioligand displacement assay. […] All binding assays were performed in 96-well plates and the amount of bound ligand was measured on a Packard TopCount using OptiPlates (Packard). […]

[2] = target: T2, FXR-LBD (pFA-FXR-LBD, Gal4 fusion) in BHK21 cells (Homo sapiens, UniProt Q96RI1); experiment: Luciferase transcriptional reporter gene assay; format: cell-based
T2 sequence (Q96RI1 262-486 limits assumed): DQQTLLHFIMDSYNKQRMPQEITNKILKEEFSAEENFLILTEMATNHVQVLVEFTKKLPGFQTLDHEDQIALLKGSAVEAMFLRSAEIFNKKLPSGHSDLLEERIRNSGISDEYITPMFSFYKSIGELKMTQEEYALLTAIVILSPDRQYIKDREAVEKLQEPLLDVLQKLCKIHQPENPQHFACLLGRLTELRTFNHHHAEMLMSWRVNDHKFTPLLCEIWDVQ
Source text: as §1
Luciferase Transcriptional Reporter Gene Assays
Baby hamster kidney cells (BHK21 ATCC CCL10) were grown in DMEM medium containing 10% FBS at 37° C. in a […]:5% CO2 atmosphere. Cells were seeded in 6-well plates at a density of 10^5 cells/well and then transfected with the pFA-FXR-LBD or expression plasmid plus a reporter plasmid. […] Six hours following transfection, the cells were harvested by trypsinization and seeded in 96-well plates at a density of 10^4 cells/well. […] Luminescence, as a measure of luciferase activity, was detected in a Packard TopCount. Transcriptional activation in the presence of a test substance was expressed as fold-change in luminescence compared to that of cells incubated in the absence of the substance. EC50 values were calculated using the XLfit program (ID Business Solutions Ltd. UK).

CC(C)CC(C(=O)NC1CCCCC1)n1c(-c2ccc(Cl)cc2)nc2ccccc21 (stereo not shown) [Example 2, 2-[2-(4-chloro-phenyl)-benzoimidazol-1-yl]-4-methyl-pentanoic acid cyclohexylamide] showed an IC50 [1] of 1500 nM and an EC50 [2] of 700 nM.

Work on COc1ccc(-c2nc3ccccc3n2C(C(=O)NCc2ccccc2)C2CCCCC2)c(OC)c1 (stereo not shown) [Example 34, N-benzyl-2-cyclohexyl-2-[2-(2,4-dimethoxy-phenyl)-benzoimidazol-1-yl]-acetamide] yielded an IC50 [1] of 500 nM and an EC50 [2] of 86 nM.
